The values that follow come from patent EP0255256A2, “Antibiotics produced by actinomadura parvosata” (SMITHKLINE BECKMAN CORPORATION, priority 1986, dated 1988).

Values after ≈ are worked out from the molar mass of the structure shown.

One may read the MIC as the smallest concentration in the dilution series that meets the test's criterion for growth inhibition. For orientation: MBC means the smallest concentration meeting the test's criterion for killing.

Holding throughout (type): cell-based
Assay [1] relates to Staph. aureus 2620. Description: MIC, standard microtiter assay. Particulars: Staphylococcus aureus; Staph. aureus 2620; Table IX; read-out: MIC. The method, then:
(§1) The in vitro minimal inhibitory concentration (MIC) of the AAJ-271 complex and its factors, and vancomycin were determined for a number of microorganisms using the standard microtite'r assay procedures. The results are shown in the following tables, each of which represents a different production run of the complex.
(§2) The in vitro minimal inhibitory concentration (MIC) and the in vitro minimal bactericidal concentration (MBC) of the AAJ-271 aglycones, pseudo-aglycone and vancomycin were determined for a number of microorganisms using the standard microtiter assay procedures.

In assay [2] the test system is Staph. aureus 675. Put plainly: MIC, standard microtiter assay. The settings on record: Staphylococcus aureus; Staph. aureus 675; Table IX; read-out: MIC. The method, then: as §1, §2
Assay [3] concerns Staph. aureus HH127. Description: MIC, standard microtiter assay. Particulars: Staphylococcus aureus; Staph. aureus HH127; Table IX; read-out: MIC. The method, then:
as §1, §2

The test system of assay [4] is Staph. epidermidis 2265. Put plainly: MIC, standard microtiter assay. The settings on record: Staphylococcus epidermidis; Staph. epidermidis 2265; Table IX; read-out: MIC. As to the method: as §1, §2
Assay [5] deals with Staph. epidermidis 2479. Description: MIC, standard microtiter assay. The settings on record: Staphylococcus epidermidis; Staph. epidermidis 2479; Table IX; read-out: MIC. As to the method: as §1, §2
The test system of assay [6] is Staph. haemolyticus 651. Description: MIC, standard microtiter assay. Particulars: Staphylococcus haemolyticus; Staph. haemolyticus 651; Table IX; read-out: MIC. As to the method:
as §1, §2

In assay [7] the test system is Strep. faecalis 34358. Description: MIC, standard microtiter assay. Particulars: Enterococcus faecalis; Strep. faecalis 34358; Table IX; read-out: MIC. As to the method: as §1, §2
Assay [8] has as its system Strep. faecalis 657. Put plainly: MIC, standard microtiter assay. The settings on record: Enterococcus faecalis; Strep. faecalis 657; Table IX; read-out: MIC. As to the method:
as §1, §2

Assay [9] concerns Staph. aureus 2620. Description: MBC, standard assay procedures. Particulars: Staphylococcus aureus; Staph. aureus 2620; Table IX; read-out: MBC. The method, then: (§3) The in vitro minimal bactericidal concentration (MBC) of the AAJ-271 C, C2 and C3 factors and vancomycin were determined for a number of microorganisms using standard assay procedures.
as §2

In assay [10] the test system is Staph. aureus 675. Description: MBC, standard assay procedures. Particulars: Staphylococcus aureus; Staph. aureus 675; Table IX; read-out: MBC. The method, then: as §3, §2
In assay [11] the test system is Staph. aureus HH127. Description: MBC, standard assay procedures. Particulars: Staphylococcus aureus; Staph. aureus HH127; Table IX; read-out: MBC. As to the method: as §3, §2
Assay [12] concerns Staph. epidermidis 2265. Description: MBC, standard assay procedures. Particulars: Staphylococcus epidermidis; Staph. epidermidis 2265; Table IX; read-out: MBC. As to the method:
as §3, §2

The subject of assay [13] is Staph. epidermidis 2479. Put plainly: MBC, standard assay procedures. Particulars: Staphylococcus epidermidis; Staph. epidermidis 2479; Table IX; read-out: MBC. The method, then:
as §3, §2

Assay [14] relates to Staph. haemolyticus 651. Put plainly: MBC, standard assay procedures. Particulars: Staphylococcus haemolyticus; Staph. haemolyticus 651; Table IX; read-out: MBC. The method, then:
as §3, §2

The test system of assay [15] is Strep. faecalis 34358. Put plainly: MBC, standard assay procedures. Particulars: Enterococcus faecalis; Strep. faecalis 34358; Table IX; read-out: MBC. The method, then:
as §3, §2

Assay [16] has as its system Strep. faecalis 657. Put plainly: MBC, standard assay procedures. Particulars: Enterococcus faecalis; Strep. faecalis 657; Table IX; read-out: MBC. The method, then: as §3, §2

Take `CNC1C(=O)NC2Cc3ccc(cc3)Oc3cc4cc(c3O)Oc3ccc(cc3Cl)C(O)C3NC(=O)C(NC(=O)C4NC(=O)C(NC2=O)c2cc(cc(O)c2Cl)Oc2cc1ccc2O)c1ccc(O)c(c1)-c1c(O[C@H]2O[C@H](CO)[C@@H](O)[C@H](O)[C@@H]2O)cc(O)cc1C(C(=O)O)NC3=O` (stereo partly shown) [AAJ 271 Pseudo-aglycone]: the minimal inhibitory concentration (MIC) in assay [1] was determined as 3.1 µg/mL (≈ 2.25 µM); in assay [2], 3.1 µg/mL (≈ 2.25 µM); in assay [3], 3.1 µg/mL (≈ 2.25 µM); in assay [4], 12.5 µg/mL (≈ 9.09 µM); in assay [5] it was 6.3 µg/mL (≈ 4.58 µM); in assay [6], 25 µg/mL (≈ 18.2 µM). The minimal inhibitory concentration (MIC) in [7] and in [8] was 3.1 µg/mL (≈ 2.25 µM) each time. For the same molecule, the minimal bactericidal concentration (MBC) in assay [9] came to 3.1 µg/mL (≈ 2.25 µM); in assay [10], 3.1 µg/mL (≈ 2.25 µM); in assay [11], 6.3 µg/mL (≈ 4.58 µM); in assay [12], 12.5 µg/mL (≈ 9.09 µM); in assay [13] it was 6.3 µg/mL (≈ 4.58 µM); in [14], 25 µg/mL (≈ 18.2 µM). The MBC in assay [15] and in assay [16] was 3.1 µg/mL (≈ 2.25 µM) in each case.
